The subject of one test is Leishmania amazonensis. In words: Antileishmanial activity against Leishmania amazonensis IFLA/BR/67 promastigotes at pH 8.0 after 72 hrs. It counts as functional, organism-based.
The test system of the next test is Leishmania donovani. In words: Antileishmanial activity against Leishmania donovani MHOM/BR/74/PP75 promastigotes after 72 hrs. The note with it: MHOM/BR/74/PP75, 72 h.
The subject of a further test is Leishmania braziliensis. In words: Antileishmanial activity against Leishmania braziliensis MHOM/BR/75/M2903 promastigotes after 72 hrs. The class given is functional, organism-based. To be noted: MHOM/BR/75/M2903, 72 h.
Another test relates to Trypanosoma cruzi. The test is described as follows: Antitrypanosomal activity against Trypanosoma cruzi Tulahuen epimastigotes after 72 hrs. It counts as functional, organism-based.

These results are taken from ChEMBL document CHEMBL1140784, “Leishmanicidal and trypanocidal activities of 2-aminocyclohexanol and 1,2-cyclohexanediamine derivatives” (Bioorg Med Chem Lett, 2008).

As usually defined, the IC50 is the point on the concentration scale where inhibition reaches its midpoint. Lower therefore signals inhibition by little substance.

Take `CCCCCCCCCCCCC/C=C1/CCC[C@H](O)[C@H]1OC(C)=O`: the IC50 is 11.6 µM in the test with Leishmania amazonensis, 13.3 µM in the test with Leishmania donovani, 13.3 µM in the test on Leishmania braziliensis and 8.8 µM with Trypanosoma cruzi.

For `CCCCCCCCCCCCC/C=C1/CCC[C@H](NCCCC)[C@H]1OC(C)=O`, the IC50 with Leishmania amazonensis stood at 9.1 µM; with Leishmania donovani, 8.6 µM; with Leishmania braziliensis, 8.8 µM; in the test with Trypanosoma cruzi, 8.6 µM.

Regarding `N=C(N)c1ccc(OCCCCCOc2ccc(C(=N)N)cc2)cc1` [PENTAMIDINE], the IC50 in the test with Leishmania amazonensis, with Leishmania donovani and in the test with Leishmania braziliensis was 29.4 µM each time.

On to `CCCCCCCCCCCCC/C=C1/CCC[C@@H](NCc2ccccc2)[C@@H]1NCCCCCC`, for which the half-maximal inhibitory concentration (IC50) with Leishmania amazonensis came out at 15.5 µM; in the test with Leishmania donovani it was 13 µM; with Leishmania braziliensis it was 10.8 µM; with Trypanosoma cruzi, 98 µM.

Turning to `O=C(Cn1ccnc1[N+](=O)[O-])NCc1ccccc1` [BENZNIDAZOLE], the IC50 with Trypanosoma cruzi worked out at 74 µM. In other words, the double-digit micromolar range.

As to `CCCCCCCCCCCCC/C=C1/CCC[C@H](OCc2ccccc2)[C@H]1N(CC)CC`, the IC50 worked out at 157 µM in the test with Leishmania amazonensis, 157 µM with Leishmania donovani, 148 µM in the test with Leishmania braziliensis and 106 µM in the test with Trypanosoma cruzi.

Take `CCCCCCCCCCCCCC[C@@H]1CCC[C@H](O)[C@H]1N` (relative stereo): the IC50 in the test with Leishmania amazonensis stood at 0.26 µM; in the test with Leishmania donovani it was 0.29 µM; in the test with Leishmania braziliensis, 0.29 µM; in the test with Trypanosoma cruzi it was 0.19 µM.

In the case of `CCCCCCCCCCCCC/C=C1/CCC[C@@H]2[C@H]1N2CCCCCC` (stereo partly specified), the 50% inhibitory concentration (IC50) turned out to be 2.4 µM in the test with Leishmania amazonensis, 1.8 µM in the test with Leishmania donovani, 2.4 µM with Leishmania braziliensis and 51 µM with Trypanosoma cruzi.

Take `CCCCCCCCCCCCC/C=C1/CCC[C@@H]2[C@H]1N2Cc1ccccc1` (stereo partly specified): the IC50 in the test on Leishmania amazonensis turned out to be 16.2 µM; in the test on Leishmania donovani, 19.9 µM; in the test with Leishmania braziliensis, 16.2 µM; in the test with Trypanosoma cruzi, 31 µM.

On to `C[C@@H]1[C@H](O)[C@@H](C)/C=C/C=C/C=C/C=C/C=C/C=C/C=C/[C@H](O[C@@H]2O[C@H](C)[C@@H](O)[C@H](N)[C@@H]2O)C[C@@H]2O[C@](O)(C[C@@H](O)C[C@@H](O)[C@H](O)CC[C@@H](O)C[C@@H](O)CC(=O)O[C@H]1C)C[C@H](O)[C@H]2C(=O)O` (stereo in doubt) [AMPHOTERICIN B], for which the half-maximal inhibitory concentration (IC50) in the test with Leishmania amazonensis and with Leishmania braziliensis was 0.2 µM in each case.

Consider `CCCCCCCCCCCCC/C=C1/CCC[C@@H](NCCCC)[C@@H]1NCCCCCC`, for which the IC50 was 14 µM in the test with Leishmania amazonensis, 17.4 µM with Leishmania donovani, 14 µM with Leishmania braziliensis and 116 µM in the test on Trypanosoma cruzi.

As to `CCCCCCCCCCCCC/C=C1/CCC[C@H](O)[C@H]1NCCN` (relative stereo), the half-inhibitory concentration (IC50) worked out at 1.1 µM in the test with Leishmania amazonensis, 1.1 µM in the test with Leishmania donovani, 1.1 µM in the test on Leishmania braziliensis and 0.14 µM in the test with Trypanosoma cruzi.

Consider `CCCCCCCCCCCCC/C=C1/CCC[C@@H](NCCCC)[C@@H]1OC(C)=O`, for which the IC50 came to 7.3 µM in the test on Leishmania amazonensis, 9.6 µM in the test with Leishmania donovani, 7.3 µM in the test on Leishmania braziliensis and 1.2 µM with Trypanosoma cruzi.
